# In US9326506B2, “Preparation method, agricultural composition and applications of natural brassinolide analogs” (CHENGDU NEWSUN CROPSCIENCE CO., LTD, priority 2012, dated 2016):
# Tested on: rice
# Test: Low temperature assay on rice seedlings
# Assay type: in vivo
# Method: According to a low temperature assay, we measured parameters including plant height, number of leaf, area of leaf, number of tiller, weight of root at low temperature to completely determine effects of the natural brassinolide analogues on the resistance to low temperature of a plant.
# The natural brassinolide analogues, BR1, BR2, BR3, BR4, BR5 and BR6, used herein, were those prepared by the method of Example 1. Respectively the analogues were dissolved into 95% (V/V) ethanol solution, and then diluted with pure water to 1 mg/L, 0.1 mg/L, 0.01 mg/L, 0.001 mg/L and 0.0001 mg/L. In addition, pure water was used as a control.
# After rice seeds were disinfected by using 5% sodium hypochlorite solution treatment, they were rinsed with distilled water until their pH>7, placed into a petri dish in a dark incubator, and cultured by using water at 30° C.±2° C. for 9 days. Then respectively the nine-day-old etiolated seedlings of rice were immersed in the above solutions containing different concentrations of the natural brassinolide analogues or pure water, and cultured at the temperature of 1° C., 2° C., 3° C., 4° C. and 5° C. for 24 hr. The parameters including plant height, area of leaf and weight of root after 3, 6, 9 and 12 days and number of leaf and number of tiller after 12 days were measured.
compound,measurement,setting,value
CC(C)C[C@@H](O)[C@H](O)[C@@H](C)[C@H]1CCC2C3CC(=O)C4C[C@H](O)[C@H](O)C[C@]4(C)C3CC[C@@]21C (some centres unmarked) [BR5],Height,"0.01 mg/l, 3 °C, 9 days",7.5 cm
same,Weight of root,"0.01 mg/l, 3 °C, 9 days",2.7 g
same,Area of leaf,"0.01 mg/l, 3 °C, 12 days",13.2 cm^2
same,Height,"0.01 mg/l, 3 °C, 12 days",7.9 cm
same,Number of leaf,"0.01 mg/l, 3 °C, 12 days",3
same,Number of tiller,"0.01 mg/l, 3 °C, 12 days",2
same,Weight of root,"0.01 mg/l, 3 °C, 12 days",2.9 g
same,Area of leaf,"0.01 mg/l, 4 °C, 3 days",10.8 cm^2
same,Height,"0.01 mg/l, 4 °C, 3 days",7.1 cm
same,Weight of root,"0.01 mg/l, 4 °C, 3 days",2.5 g
same,Area of leaf,"0.01 mg/l, 4 °C, 6 days",12.4 cm^2
same,Height,"0.01 mg/l, 4 °C, 6 days",7.5 cm
same,Weight of root,"0.01 mg/l, 4 °C, 6 days",2.6 g
same,Area of leaf,"0.01 mg/l, 4 °C, 9 days",13.1 cm^2
same,Height,"0.01 mg/l, 4 °C, 9 days",7.6 cm
same,Weight of root,"0.01 mg/l, 4 °C, 9 days",2.9 g
same,Area of leaf,"0.01 mg/l, 4 °C, 12 days",13.5 cm^2
same,Height,"0.01 mg/l, 4 °C, 12 days",7.8 cm
same,Number of leaf,"0.01 mg/l, 4 °C, 12 days",3
same,Number of tiller,"0.01 mg/l, 4 °C, 12 days",2
same,Weight of root,"0.01 mg/l, 4 °C, 12 days",3.0 g
same,Area of leaf,"0.01 mg/l, 5 °C, 3 days",10.3 cm^2
same,Height,"0.01 mg/l, 5 °C, 3 days",7.4 cm
same,Weight of root,"0.01 mg/l, 5 °C, 3 days",2.8 g
same,Area of leaf,"0.01 mg/l, 5 °C, 6 days",13.1 cm^2
same,Height,"0.01 mg/l, 5 °C, 6 days",7.4 cm
same,Weight of root,"0.01 mg/l, 5 °C, 6 days",3.0 g
same,Area of leaf,"0.01 mg/l, 5 °C, 9 days",16.4 cm^2
same,Height,"0.01 mg/l, 5 °C, 9 days",8 cm
same,Weight of root,"0.01 mg/l, 5 °C, 9 days",3.4 g
same,Area of leaf,"0.01 mg/l, 5 °C, 12 days",17 cm^2
same,Height,"0.01 mg/l, 5 °C, 12 days",8.2 cm
same,Number of leaf,"0.01 mg/l, 5 °C, 12 days",4
same,Number of tiller,"0.01 mg/l, 5 °C, 12 days",3
same,Weight of root,"0.01 mg/l, 5 °C, 12 days",3.6 g
same,Area of leaf,"0.1 mg/l, 1 °C, 3 days",10.1 cm^2
same,Height,"0.1 mg/l, 1 °C, 3 days",7.0 cm
same,Weight of root,"0.1 mg/l, 1 °C, 3 days",2.8 g
same,Area of leaf,"0.1 mg/l, 1 °C, 6 days",11 cm^2
same,Height,"0.1 mg/l, 1 °C, 6 days",7.2 cm
same,Weight of root,"0.1 mg/l, 1 °C, 6 days",3.0 g
same,Area of leaf,"0.1 mg/l, 1 °C, 9 days",12 cm^2
same,Height,"0.1 mg/l, 1 °C, 9 days",7.2 cm
same,Weight of root,"0.1 mg/l, 1 °C, 9 days",3.4 g
same,Area of leaf,"0.1 mg/l, 1 °C, 12 days",13.4 cm^2
same,Height,"0.1 mg/l, 1 °C, 12 days",7.4 cm
same,Number of leaf,"0.1 mg/l, 1 °C, 12 days",3
same,Number of tiller,"0.1 mg/l, 1 °C, 12 days",3
same,Weight of root,"0.1 mg/l, 1 °C, 12 days",3.4 g
same,Area of leaf,"0.1 mg/l, 2 °C, 3 days",10.4 cm^2
same,Height,"0.1 mg/l, 2 °C, 3 days",7.1 cm
same,Weight of root,"0.1 mg/l, 2 °C, 3 days",2.8 g
same,Area of leaf,"0.1 mg/l, 2 °C, 6 days",11.2 cm^2
same,Height,"0.1 mg/l, 2 °C, 6 days",7.3 cm
same,Weight of root,"0.1 mg/l, 2 °C, 6 days",3.0 g
same,Area of leaf,"0.1 mg/l, 2 °C, 9 days",12.4 cm^2
same,Height,"0.1 mg/l, 2 °C, 9 days",7.3 cm
same,Weight of root,"0.1 mg/l, 2 °C, 9 days",3.1 g
same,Area of leaf,"0.1 mg/l, 2 °C, 12 days",13.6 cm^2
same,Height,"0.1 mg/l, 2 °C, 12 days",7.4 cm
same,Number of leaf,"0.1 mg/l, 2 °C, 12 days",3
same,Number of tiller,"0.1 mg/l, 2 °C, 12 days",3
same,Weight of root,"0.1 mg/l, 2 °C, 12 days",3.2 g
same,Area of leaf,"0.1 mg/l, 3 °C, 3 days",10.5 cm^2
same,Height,"0.1 mg/l, 3 °C, 3 days",7.4 cm
same,Weight of root,"0.1 mg/l, 3 °C, 3 days",2.5 g
same,Area of leaf,"0.1 mg/l, 3 °C, 6 days",12 cm^2
same,Height,"0.1 mg/l, 3 °C, 6 days",7.4 cm
same,Weight of root,"0.1 mg/l, 3 °C, 6 days",2.7 g
same,Area of leaf,"0.1 mg/l, 3 °C, 9 days",12.6 cm^2
same,Height,"0.1 mg/l, 3 °C, 9 days",7.9 cm
same,Weight of root,"0.1 mg/l, 3 °C, 9 days",2.7 g
same,Area of leaf,"0.1 mg/l, 3 °C, 12 days",13.4 cm^2
same,Height,"0.1 mg/l, 3 °C, 12 days",7.9 cm
same,Number of leaf,"0.1 mg/l, 3 °C, 12 days",3
same,Number of tiller,"0.1 mg/l, 3 °C, 12 days",2
same,Weight of root,"0.1 mg/l, 3 °C, 12 days",2.9 g
same,Area of leaf,"0.1 mg/l, 4 °C, 3 days",10.8 cm^2
same,Height,"0.1 mg/l, 4 °C, 3 days",7.5 cm
same,Weight of root,"0.1 mg/l, 4 °C, 3 days",2.5 g
same,Area of leaf,"0.1 mg/l, 4 °C, 6 days",12.1 cm^2
same,Height,"0.1 mg/l, 4 °C, 6 days",7.5 cm
same,Weight of root,"0.1 mg/l, 4 °C, 6 days",2.7 g
same,Area of leaf,"0.1 mg/l, 4 °C, 9 days",13.2 cm^2
same,Height,"0.1 mg/l, 4 °C, 9 days",8 cm
same,Weight of root,"0.1 mg/l, 4 °C, 9 days",2.9 g
same,Area of leaf,"0.1 mg/l, 4 °C, 12 days",13.8 cm^2
same,Height,"0.1 mg/l, 4 °C, 12 days",8 cm
same,Number of leaf,"0.1 mg/l, 4 °C, 12 days",3
same,Number of tiller,"0.1 mg/l, 4 °C, 12 days",2
same,Weight of root,"0.1 mg/l, 4 °C, 12 days",3 g
same,Area of leaf,"0.1 mg/l, 5 °C, 3 days",11 cm^2
same,Height,"0.1 mg/l, 5 °C, 3 days",7.5 cm
same,Weight of root,"0.1 mg/l, 5 °C, 3 days",2.9 g
same,Area of leaf,"0.1 mg/l, 5 °C, 6 days",12.9 cm^2
same,Height,"0.1 mg/l, 5 °C, 6 days",7.6 cm
same,Weight of root,"0.1 mg/l, 5 °C, 6 days",3.2 g
same,Area of leaf,"0.1 mg/l, 5 °C, 9 days",16.8 cm^2
same,Height,"0.1 mg/l, 5 °C, 9 days",8 cm
same,Weight of root,"0.1 mg/l, 5 °C, 9 days",3.5 g
same,Area of leaf,"0.1 mg/l, 5 °C, 12 days",19 cm^2
same,Height,"0.1 mg/l, 5 °C, 12 days",8.3 cm
same,Number of leaf,"0.1 mg/l, 5 °C, 12 days",3
same,Number of tiller,"0.1 mg/l, 5 °C, 12 days",2
same,Weight of root,"0.1 mg/l, 5 °C, 12 days",4.1 g
same,Area of leaf,"1 mg/l, 1 °C, 3 days",10 cm^2
same,Height,"1 mg/l, 1 °C, 3 days",7.0 cm
same,Weight of root,"1 mg/l, 1 °C, 3 days",2.6 g
same,Area of leaf,"1 mg/l, 1 °C, 6 days",11.2 cm^2
same,Height,"1 mg/l, 1 °C, 6 days",7.3 cm
same,Weight of root,"1 mg/l, 1 °C, 6 days",3.1 g
same,Area of leaf,"1 mg/l, 1 °C, 9 days",12.4 cm^2
same,Height,"1 mg/l, 1 °C, 9 days",7.3 cm
same,Weight of root,"1 mg/l, 1 °C, 9 days",3.1 g
same,Area of leaf,"1 mg/l, 1 °C, 12 days",13 cm^2
same,Height,"1 mg/l, 1 °C, 12 days",7.9 cm
same,Number of leaf,"1 mg/l, 1 °C, 12 days",3
same,Number of tiller,"1 mg/l, 1 °C, 12 days",3
same,Weight of root,"1 mg/l, 1 °C, 12 days",3.7 g
same,Area of leaf,"1 mg/l, 2 °C, 3 days",10.2 cm^2
same,Height,"1 mg/l, 2 °C, 3 days",7.1 cm
same,Weight of root,"1 mg/l, 2 °C, 3 days",2.6 g
same,Area of leaf,"1 mg/l, 2 °C, 6 days",11.7 cm^2
same,Height,"1 mg/l, 2 °C, 6 days",7.2 cm
same,Weight of root,"1 mg/l, 2 °C, 6 days",3.0 g
same,Area of leaf,"1 mg/l, 2 °C, 9 days",12.6 cm^2
same,Height,"1 mg/l, 2 °C, 9 days",7.2 cm
same,Weight of root,"1 mg/l, 2 °C, 9 days",3.2 g
same,Area of leaf,"1 mg/l, 2 °C, 12 days",12.8 cm^2
same,Height,"1 mg/l, 2 °C, 12 days",7.8 cm
same,Number of leaf,"1 mg/l, 2 °C, 12 days",3
same,Number of tiller,"1 mg/l, 2 °C, 12 days",3
same,Weight of root,"1 mg/l, 2 °C, 12 days",3.7 g
same,Area of leaf,"1 mg/l, 3 °C, 3 days",10.4 cm^2
same,Height,"1 mg/l, 3 °C, 3 days",7.2 cm
same,Weight of root,"1 mg/l, 3 °C, 3 days",2.5 g
same,Area of leaf,"1 mg/l, 3 °C, 6 days",12 cm^2
same,Height,"1 mg/l, 3 °C, 6 days",7.5 cm
same,Weight of root,"1 mg/l, 3 °C, 6 days",2.6 g
same,Area of leaf,"1 mg/l, 3 °C, 9 days",12.1 cm^2
same,Height,"1 mg/l, 3 °C, 9 days",7.6 cm
same,Weight of root,"1 mg/l, 3 °C, 9 days",2.8 g
same,Area of leaf,"1 mg/l, 3 °C, 12 days",13 cm^2
same,Height,"1 mg/l, 3 °C, 12 days",8.1 cm
same,Number of leaf,"1 mg/l, 3 °C, 12 days",3
same,Number of tiller,"1 mg/l, 3 °C, 12 days",2
same,Weight of root,"1 mg/l, 3 °C, 12 days",2.9 g
same,Area of leaf,"1 mg/l, 4 °C, 3 days",10.9 cm^2
same,Height,"1 mg/l, 4 °C, 3 days",7.2 cm
same,Weight of root,"1 mg/l, 4 °C, 3 days",2.5 g
same,Area of leaf,"1 mg/l, 4 °C, 6 days",12.6 cm^2
same,Height,"1 mg/l, 4 °C, 6 days",7.5 cm
same,Weight of root,"1 mg/l, 4 °C, 6 days",2.7 g
same,Area of leaf,"1 mg/l, 4 °C, 9 days",13.2 cm^2
same,Height,"1 mg/l, 4 °C, 9 days",7.8 cm
same,Weight of root,"1 mg/l, 4 °C, 9 days",3.1 g
same,Area of leaf,"1 mg/l, 4 °C, 12 days",13.4 cm^2
same,Height,"1 mg/l, 4 °C, 12 days",8.2 cm
same,Number of leaf,"1 mg/l, 4 °C, 12 days",3
same,Number of tiller,"1 mg/l, 4 °C, 12 days",2
same,Weight of root,"1 mg/l, 4 °C, 12 days",3.2 g
same,Area of leaf,"1 mg/l, 5 °C, 3 days",11.1 cm^2
same,Height,"1 mg/l, 5 °C, 3 days",7.3 cm
same,Weight of root,"1 mg/l, 5 °C, 3 days",2.9 g
same,Area of leaf,"1 mg/l, 5 °C, 6 days",13.1 cm^2
same,Height,"1 mg/l, 5 °C, 6 days",7.7 cm
same,Weight of root,"1 mg/l, 5 °C, 6 days",3.5 g
same,Area of leaf,"1 mg/l, 5 °C, 9 days",18 cm^2
same,Height,"1 mg/l, 5 °C, 9 days",8 cm
same,Weight of root,"1 mg/l, 5 °C, 9 days",3.6 g
same,Area of leaf,"1 mg/l, 5 °C, 12 days",20 cm^2
same,Height,"1 mg/l, 5 °C, 12 days",8.4 cm
same,Number of leaf,"1 mg/l, 5 °C, 12 days",3
same,Number of tiller,"1 mg/l, 5 °C, 12 days",2
same,Weight of root,"1 mg/l, 5 °C, 12 days",4.5 g
same,Effects on resistance to low temperature compared among analogues,in vivo,"more than those of BR2, BR3 and BR4"
